The test system of data set [1] is HEK293F cells. Put plainly: Transient gene expression in HEK293F cells: IgG concentration / titer (turbidimetric test). It is filed as cell-based, human. The settings on record: 300 nM, none=100, N=3.
For data set [2], the system named is HEK293F cells. Description: Transient gene expression in HEK293F cells: cell specific productivity of the expressed antibody. It is filed as cell-based, human. The following applies: for activity at 0.3 µM: Homo sapiens, HEK293F, read-out: relative cell specific productivity.
For data set [3], the system named is HDAC. Description: in situ HDAC activity fluorimetric assay in HEK293F cells. It is filed as cell-based, human. On the procedure:
HDAC activity was determined by the in situ HDAC activity fluorimetric assay kit (Biovision) according to the manufacturer's instructions. HEK293F cells were suspended in F17 medium (Life Technologies) to a cell density of 5*10^5 cells/mL. One hundred micro liter culture was pipetted per well into a black ELISA plate. The plate was centrifuged at 1000 g for 5 min. The supernatant was discarded and the cells were resuspended in a reaction mix containing F17 medium, 1% HDAC substrate and the molecule tested towards HDAC inhibitory activity. 10 μM Trichostatin A was used as a positive control and the basal HDAC activity was determined by re-suspending the cells in F17 medium with 1% HDAC substrate. Furthermore, cells were resuspended in F17 medium without HDAC substrate as a background control. The HDAC activity assay was performed in triplicates for every sample as well as every control. The 96-well plate was incubated at 36.5° C., 80% humidity and 7% CO2 for one hour. During this time, the active HDACs deacetylate the HDAC substrate what releases the quenched fluorescent signal of the substrate. After incubation the fluorescent signal was analyzed by the infinite fluorescence plate reader (TECAN). The fluorescence signal of the samples and controls was normalized by subtracting the fluorescence signal of the background control. It is assumed that the fluorescent signal arising from deacetylation of the substrate directly correlates with HDAC activity.

In data set [4] the test system is HEK293F cells. It is filed as cell-based. The following applies: in contrast to other HDACi tested. Here is the method:
To determine cell viability and viable cell density (VCD) 1 mL cultivation medium (cell suspension) was transferred into a Cedex low fouling sample cup. The cup was placed into a Vicell instrument (Beckman Coulter). The instrument mixes cells with trypan blue to stain dead cells. After analysis of 50 images VCD was calculated and viability was determined by calculation of the percentage of viable cell number in relation to the total cell number.

Data set [5] relates to HDAC. The following applies: description from the literature; cited from earlier work.

Where two headings read alike, the source gives them in different places.

Turning to `Cl.Cn1cc(CNCC2CCN(c3ncc(C(=O)NO)cn3)CC2)c2ccccc21` [Quisinostat], the “relative IgG concentration” value with HEK293F cells [1] (2M2P/Quisinostat combination study) and in the data set on HEK293F cells [1] (VPA/Quisinostat combination study) was 169% throughout. The “specific productivity after 96 hours” value with HEK293F cells [2] (300 nM, single treatment, none 2.01, N=3) stood at 3.89 pg/cell/day. Also, in the data set on HEK293F cells [2] (15 μM BAY11-7082 added 24 h after transfection), the “cell specific productivity with BAY11-7082 addition compared to the single treatment” value is “significantly reduced”. For the same molecule, the activity at 0.3 µM in the data set on HEK293F cells [2] (300 nM, 2M2P/Quisinostat combination study, none=100, N=3) was 258%; in the data set on HEK293F cells [2] (300 nM, VPA/Quisinostat combination study, none=100, N=3), 258%; in the data set on HEK293F cells [2] (300 nM, single treatment, none=100, N=3), 218%; in the data set on HEK293F cells [2] (300 nM, transfected control=100, N=3, FIG. 3B) it was 339%; in the data set with HEK293F cells [2] (employed concentration 300 nM, none=100, N=2, FIG. 2B), 279%. Moreover, the “Mean cell specific productivity” value in the data set on HEK293F cells [2] (conc. 300 mM (so in the source), untreated 1.71) is 1.71 (300 mM) pg/cell/24 h. Besides, the “Effect on titer/SPR” value with HEK293F cells [2] (summary table, in words) is reported as “strong”. The HDACi in the data set on HDAC [3] (300 nM, N=3, FIG. 3A) was found to be 69%. Moreover, the HDAC inhibition result in the data set with HDAC [3] (yes/no, summary table) is on record as “yes”. Further, the “growth inhibition and cell death” value in the data set with HEK293F cells [4] is “induce growth inhibition and cell death”. Also, the “HDAC class / isoform selectivity” value with HDAC [5] was “very potent broad spectrum HDAC inhibitor with highest potency towards HDAC 1, 2, 4, and 11”.

(Values after patent US10745731B2, “Recombinant production method” (Hoffmann-La Roche Inc., priority 2015, dated 2020).)
